Among the data in the supplement of paper PMC10307832 are relative viability values, retold here.

What all share (test): relative viability (nuclei count vs DMSO), 5 days (fraction); higher = more cells survive
Compound in assay [1]: C1=CC=C2C(=C1)N=C(S2)C(C#N)C3=NC(=NC=C3)NCCC4=CN=CC=C4 + Nc1ncn([C@H]2C[C@H](O)[C@@H](CO)O2)c(=O)n1 [Decitabine] (partner 2 µM)
An outline of the steps:
(§1)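 Relative viability equals treated-well nuclei counts divided by vehicle-well nuclei counts. Counts came from 4× images of lung cancer cell lines grown in 1536-well plates for 5 days after pin-tool dosing on the day after seeding. Dosing used one drug alone or a fixed anchor-drug dose plus five library-drug doses (not always all listed) in √10 steps, and values are medians of duplicate plates.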

Compound in the assay “NVP-TAE684 + Palbociclib”: COc1cc(N2CCC(N3CCN(C)CC3)CC2)ccc1Nc1ncc(Cl)c(Nc2ccccc2S(=O)(=O)C(C)C)n1 [NVP-TAE684] + CC(=O)c1c(C)c2cnc(Nc3ccc(N4CCNCC4)cn3)nc2n(C2CCCC2)c1=O [Palbociclib] (partner 0.5 µM)
An outline of the steps:
as §1

Compound in the assay “CUDC-101 + Olaparib”: C#Cc1cccc(Nc2ncnc3cc(OC)c(OCCCCCCC(=O)NO)cc23)c1 [CUDC-101] + O=C(c1cc(Cc2n[nH]c(=O)c3ccccc23)ccc1F)N1CCN(C(=O)C2CC2)CC1 [Olaparib] (partner 8 µM)
An outline of the steps: as §1

Compound in assay [2]: C1=CC=C2C(=C1)N=C(S2)C(C#N)C3=NC(=NC=C3)NCCC4=CN=CC=C4 + Nc1nc2[nH]cc(CCc3ccc(C(=O)N[C@@H](CCC(=O)O)C(=O)O)cc3)c2c(=O)[nH]1 [Pemetrexed] (partner 0.2 µM)
The method, boiled down: as §1

Take UMC-11: the relative viability in assay [1] (first compound 0.005 µM) was determined as 0.546; in assay [1] (first compound 0.01581 µM), 0.65; in assay [1] (first compound 0.05 µM) it was 0.456; in assay [1] (first compound 0.1581 µM) it was 0.589; in assay [1] (first compound 0.5 µM), 0.59; with NVP-TAE684 + Palbociclib (first compound 0.2 µM), 0.344. The relative viability with NVP-TAE684 + Palbociclib (first compound 0.6325 µM) stood at 0.326; with NVP-TAE684 + Palbociclib (first compound 2 µM), 0.26; with CUDC-101 + Olaparib (first compound 0.01 µM), 0.29; in the assay with CUDC-101 + Olaparib (first compound 0.03162 µM) it was 0.707; in the assay with CUDC-101 + Olaparib (first compound 0.1 µM) it was 0.377; in the assay with CUDC-101 + Olaparib (first compound 0.3162 µM), 0.237. The relative viability with CUDC-101 + Olaparib (first compound 1 µM) was determined as 0.119; in assay [2] (first compound 0.01581 µM) it was 0.79; in assay [2] (first compound 0.05 µM), 0.769; in assay [2] (first compound 0.1581 µM), 0.94; in assay [2] (first compound 0.5 µM), 0.771.
